Laboratory results as given in PMC6713216, “Dual-target anti-Alzheimer’s disease agents with both iron ion chelating and monoamine oxidase-B inhibitory activity” (Journal of Enzyme Inhibition and Medicinal Chemistry, 2019).
Read-outs that look alike come from different tables or passages of the source. Marks after values point to notes of the source that are not given here.

Experiments:
[1] = Calculation of pFe3+ by HySS software from pKa and logβ values; type: physicochemical
Method: The values of pFe^3+ were calculated by HySS software according to the results of pKa1, pKa2, logβ1, logβ2, and logβ3 determined by the above methods. The basic parameters were set as follows: FeOH = –2.563, Fe(OH)2 = –6.205, Fe(OH)3 = –15.1, Fe2(OH)2 = –2.843, Fe3(OH)4 = –6.059, Fe(OH)4 = –21.883[23].

[2] = Determination of iron(III) affinity (Logβ1, Logβ2, Logβ3) by spectrophotometric titration; type: physicochemical; settings: measured in 0.1 M KCl solution
[3] = parameters: method as in ref 17 = [17]; 17 Li Z-S , Qiao R-P , Yang Z-J , et al.  . Tetrahedron Asymmetry 2006; 17 : 1056 – 61 .; settings: cited from earlier work
[4] = parameters: method as in ref 17 = [17]; 17 Li Z-S , Qiao R-P , Yang Z-J , et al. One-step synthesis of novel tricyclic isomeric azidonucleosides . Tetrahedron Asymmetry 2006; 17 : 1056 – 61 .; settings: cited from earlier work
[5] = parameters: method as in ref 17 = [17]; 17 Li Z-S , Qiao R-P , Yang Z-J , et al. One-step synthesis of novel tricyclic isomeric azidonucleosides . Tetrahedron Asymmetry 2006; 17 : 1056 – 61 .; settings: cited from earlier work; remark: listed apart in the source
[6] = pKa determination by automatic spectrophotometric titration; type: physicochemical; settings: DMSO:KCl (0.1 M) = 2:3 (V/V), 25 °C
Method: (§1) The automatic titration system used in the test consisted of an automatic titrator, a luminescence 759 s UV-Vis spectrophotometer, and a pH Meter (Mettler Toledo InLab Expert PRO/Mettler Toledo InLab Science). All instruments are controlled by a computer program.
(§2) The testing solution (2:3 DMSO/KCl (0.1 M), V/V) was maintained at 25 °C using a TP-3A temperature controller. The cuvette is mounted on a spectrophotometer. The E0 and s of the pH Meter were calibrated by three standard solutions (pH = 6.86, 9.18, 4.00). KCl solution (0.1 M) was used to maintain the ionic strength. For the Fe(III) affinity evaluation, the ratio of compounds to iron ion was kept at 1.1:1 (n/n) when Logβ1 was measured; the ratio of compounds to iron ion was kept at 5:1 (n/n) when Logβ2 and Logβ3 were tested.
The titration was performed in a 50 mm path length cuvette. 45 ml KCl (0.1 M) solution, 40 μL of saturated EDTA solution were added to the cuvette. The pH value of the solution was acidified to 2.0 with hydrochloric acid (1.5 M). Then 20 μL of test compound DMSO solution (30 μM/L) was added and stirred vigorously. By adding KOH solution (0.1 M) from the automatic buret, the pH value of the solution was increased by 0.1. […] Adding KOH solution (0.1 M) and repeated the automatic process until the specified endpoint of pH value was reached. All data were recorded internally by the Visual Basic program, and the test results are analysed by the HypSpec2014 program.

[7] = Determination of iron(III) affinity (Logβ1, Logβ2, Logβ3) by spectrophotometric titration; type: physicochemical; settings: DMSO:KCl (0.1 M) = 2:3 (V/V), 25 °C
Method: as §1, §2
A 45 ml KCl (0.1 M) solution was added to the cuvette (50 mm) and the pH value was acidified to 2.1. Then 30 μM DMSO solution of the testing compound and 60 μL acidic solution of FeCl3 (15 mM) were added separately, and the mixture was vigorously stirred. After the absorbance value is stabilised, a certain amount of HCl solution (4 M) was added by the automatic buret to reduce the pH of the solution by 0.1. After the system was equilibrated, the spectral scan was performed once after 20 min. This protocol was repeated until the specified endpoint of the pH value was reached. All data was recorded with the internal Visual Basic program, HypSpec2014 program was utilised for the data analysis.
Similarly, 45 ml KCl (0.1 M) solution was added to the cuvette (50 mm) and the pH value was acidified to 2.1. Then 30 μM DMSO solution of the testing compound and 60 μL acidic solution of FeCl3 (15 mM) were added separately, and the mixture was vigorously stirred. After the absorbance value is stabilised, a certain amount of KOH solution (0.1 M) was added by the automatic buret to increase the pH of the solution by 0.1. After the system was equilibrated, the spectral scan was performed once after 5 min. This protocol was repeated until the specified endpoint of the pH value was reached. All data were recorded with the internal Visual Basic program, HypSpec2014 program was utilised for the data analysis[5]^,[21]^,[22].

With `Cc1c(O)c(=O)ccn1C` [Deferiprone] the “pFe3+” value ([1]; DMSO:KCl (0.1 M) = 2:3 (V/V), calculated by HySS from pKa1, pKa2, logβ1-3) was 17.4, the “pFe3+” value ([1]; data measured in 0.1 M KCl solution) was 20.1^b and the Logβ2 [2] was 27.0^b. The Logβ3 [2] was 36.4^b, the pKa2 [3] was 9.78^c and the “pFe3+” value [4] was 20.7^c. The Logβ1 [5] was 15.03^c, the Logβ2 [5] was 27.42^c and the Logβ3 [5] was 37.35^c. The pKa1 [6] was 3.68, the Logβ1 ([7]; compound:iron 1.1:1) was 14.83 and the Logβ2 ([7]; compound:iron 5:1) was 25.7. It also gave a Logβ3 ([7]; compound:iron 5:1) of 33.6.
